Laboratory results from patent publication US20230227492A1 (priority 2020, published 2023).
pIC50: −log10 of the molar value. Like-named read-outs stand apart in the source and are kept apart here.

What was measured:
[1] = biological target: T1, full-length, untagged, human estrogen receptors (ERα) (Homo sapiens, UniProt P03372); experiment: ERα fluorescence polarization (FP) binding assay; details: for IC50: fluorescence polarization, Fluormone ES2, read-out: IC50 (nM) ERα
T1 construct: insect cell-expressed, full-length, untagged, human estrogen receptors; purchased Life Technologies (Carlsbad, Calif.); host or cells: insect cells
Description: (§1) Receptor Binding Assay Information—In certain of the following examples, hormone receptor binding assays were used to determine the receptor binding activities of monomeric compound embodiments to androgen (AR), progesterone (PR), estrogen alpha (ERα) or glucocorticoid (GR) receptors. For AR, PR or ERα, the respective receptors are added to novel, tight-binding, selective ligands tagged with a fluorescent molecule, to form a receptor-ligand complex with a high polarization value. This complex is then added to individual monomeric compound embodiments that are contained in well plates. If the monomeric compound binds to the respective receptors, it displaces the fluorescent ligand from the complex, resulting in a low polarization value. In such embodiments, the monomeric compound is characterized as a competitor. […] In such embodiments, the monomeric compound is characterized as a noncompetitor. The shift in polarization value in the presence of the monomeric compound is used to determine the relative affinity of monomeric compound for the receptor.
(§2) For the androgen, progesterone, and estrogen receptor binding assays described herein, the preparation of reagents and test procedures is performed according to the manufacturer's instructions (Life Technologies, Carlsbad, Calif.). The plates are covered to protect the reagents from light and incubated at 20-25° C. for 4-8 hrs.
For ERα data, the ERα fluorescence polarization (FP) assay was used, which provides a sensitive and efficient method for high-throughput screening of potential ER ligands. The kit uses insect cell-expressed, full-length, untagged, human estrogen receptors and a tight-binding, fluorescent estrogen ligand (Fluormone™ ES2) in a homogenous mix-and-read assay format. ERα was added to a fluorescent estrogen ligand to form an ERα/Fluormone™ ES2 complex. This complex was then added to individual compound embodiments contained in 96-well plates. […] The change in polarization value in the presence of a compound embodiment was used to determine relative affinity of a compound embodiment for ERα.

[2] = biological target: T2, rat AR ligand-binding domain tagged with His and GST [AR-LBD (His-GST)] (Rattus norvegicus, UniProt P15207); experiment: AR fluorescence polarization (FP) binding assay; details: Fluormone AL Green
T2 construct: purchased Life Technologies (Carlsbad, Calif.)
T2 sequence (P15207 651-882 limits assumed): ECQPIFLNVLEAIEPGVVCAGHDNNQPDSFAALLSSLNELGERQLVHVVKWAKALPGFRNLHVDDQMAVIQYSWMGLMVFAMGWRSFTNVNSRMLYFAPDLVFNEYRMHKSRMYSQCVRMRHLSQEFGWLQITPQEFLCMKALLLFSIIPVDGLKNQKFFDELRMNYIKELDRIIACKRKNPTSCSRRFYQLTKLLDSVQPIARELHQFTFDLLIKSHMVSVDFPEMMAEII
Description: as §1, §2
In this example, AR binding activity and ER binding activity of certain reference compounds and monomeric compound embodiments wherein the R^2 group is not present was assessed (such as to test compound activity after R^2 cleavage). The AR fluorescence polarization (FP) assay was used and provides a sensitive and efficient method for high-throughput screening of potential AR ligands. The kit uses rat AR ligand-binding domain tagged with His and GST [AR-LBD (His-GST)], and a tight-binding, selective fluorescent androgen ligand (Fluormone™ AL Green) in a homogenous mix-and-read assay format. The androgen receptor [AR-LBD (His-GST)] was added to a fluorescent androgen ligand (Fluormone™ AL Green) to form an AR-LBD (His-GST)/Fluormone™ AL Green complex resulting in a high polarization value. This complex was then added to individual compound embodiments in 96-well plates. Competitors displaced the fluorescent Fluormone™ AL Green ligand from the AR-LBD (His-GST)/Fluormone™ AL Green complex, causing the fluorescent ligand to tumble rapidly during its fluorescence lifetime, resulting in a low polarization value. […] The shift in polarization value in the presence of compound embodiments used to determine relative affinity of compound embodiments for AR-LBD (His-GST).

[3] = biological target: T3, human PR ligand-binding domain tagged with GST [PR-LBD (GST)] (Homo sapiens, UniProt P06401); experiment: PR fluorescence polarization (FP) binding assay; details: Fluormone PL Green
T3 construct: purchased Life Technologies (Carlsbad, Calif.)
T3 sequence (P06401 679-913 limits assumed): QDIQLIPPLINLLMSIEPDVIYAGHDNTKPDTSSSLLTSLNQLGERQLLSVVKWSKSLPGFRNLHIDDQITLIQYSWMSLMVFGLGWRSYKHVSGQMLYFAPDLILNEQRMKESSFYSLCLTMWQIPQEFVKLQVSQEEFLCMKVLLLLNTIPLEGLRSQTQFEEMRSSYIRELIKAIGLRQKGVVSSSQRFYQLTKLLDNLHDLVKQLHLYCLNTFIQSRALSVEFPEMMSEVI
Description: as §1
as §2, with “hrs. The fluorescence polarization of the samples is measured with 485 nm excitation and 530 nm emission interference filters.” for “hrs.”
In this example, PR binding activity was assessed using the PR fluorescence polarization (FP) assay, which provides a sensitive and efficient method for high-throughput screening of potential PR ligands. The kit uses human PR ligand-binding domain tagged with GST [PR-LBD (GST)], and a tight-binding, selective fluorescent progesterone ligand (Fluormone™ PL Green) in a homogenous mix-and-read assay format. Progesterone receptor [PR-LBD (GST)] was added to a fluorescent progesterone ligand (Fluormone™ PL Green) to form a PR-LBD (GST)/Fluormone™ PL Green complex resulting in a high polarization value. This complex was then added to individual compound embodiments in 96-well plates. Competitors displaced the fluorescent Fluormone™ PL Green ligand from the PR-LBD (GST)/Fluormone™ PL Green complex, causing the fluorescent ligand to tumble rapidly during its fluorescence lifetime, resulting in a low polarization value. […] The shift in polarization value in the presence of compound embodiments was used to determine relative affinity of compound embodiments for PR-LBD (GST). The fluorescence polarization of the samples was measured with 485 nm excitation and 530 nm emission interference filters. Results for monomeric compound embodiments wherein the R^2 groups is not present (such as to test compound activity after R^2 cleavage) are provided in Table 4.

[4] = biological target: T4, recombinant human aromatase (Homo sapiens, UniProt P11511); experiment: Aromatization by recombinant human aromatase (CYP19+P450 reductase Supersomes); details: 10 μM, 37° C.
T4 sequence (P11511 1-503): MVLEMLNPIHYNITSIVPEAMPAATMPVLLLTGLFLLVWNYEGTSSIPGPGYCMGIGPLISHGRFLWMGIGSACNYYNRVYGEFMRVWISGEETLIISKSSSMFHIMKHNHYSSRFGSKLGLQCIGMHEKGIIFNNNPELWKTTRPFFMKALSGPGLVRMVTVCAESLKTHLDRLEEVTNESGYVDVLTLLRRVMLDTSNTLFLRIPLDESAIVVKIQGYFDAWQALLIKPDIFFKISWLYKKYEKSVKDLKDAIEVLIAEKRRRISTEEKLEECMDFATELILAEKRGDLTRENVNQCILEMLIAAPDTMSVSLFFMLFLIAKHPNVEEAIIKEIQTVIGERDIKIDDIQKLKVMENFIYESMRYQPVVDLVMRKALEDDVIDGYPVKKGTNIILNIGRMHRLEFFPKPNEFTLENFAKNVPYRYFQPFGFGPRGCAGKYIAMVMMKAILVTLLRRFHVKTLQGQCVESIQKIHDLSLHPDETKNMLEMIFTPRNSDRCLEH

[5] = human, plasma
[6] = biological target: T5, human full-length androgen receptor (Homo sapiens, UniProt P10275); experiment: AR Transactivation Assay (MMTV-luciferase, HEC-1-B cells); assay type: cell-based
T5 sequence (P10275 1-920): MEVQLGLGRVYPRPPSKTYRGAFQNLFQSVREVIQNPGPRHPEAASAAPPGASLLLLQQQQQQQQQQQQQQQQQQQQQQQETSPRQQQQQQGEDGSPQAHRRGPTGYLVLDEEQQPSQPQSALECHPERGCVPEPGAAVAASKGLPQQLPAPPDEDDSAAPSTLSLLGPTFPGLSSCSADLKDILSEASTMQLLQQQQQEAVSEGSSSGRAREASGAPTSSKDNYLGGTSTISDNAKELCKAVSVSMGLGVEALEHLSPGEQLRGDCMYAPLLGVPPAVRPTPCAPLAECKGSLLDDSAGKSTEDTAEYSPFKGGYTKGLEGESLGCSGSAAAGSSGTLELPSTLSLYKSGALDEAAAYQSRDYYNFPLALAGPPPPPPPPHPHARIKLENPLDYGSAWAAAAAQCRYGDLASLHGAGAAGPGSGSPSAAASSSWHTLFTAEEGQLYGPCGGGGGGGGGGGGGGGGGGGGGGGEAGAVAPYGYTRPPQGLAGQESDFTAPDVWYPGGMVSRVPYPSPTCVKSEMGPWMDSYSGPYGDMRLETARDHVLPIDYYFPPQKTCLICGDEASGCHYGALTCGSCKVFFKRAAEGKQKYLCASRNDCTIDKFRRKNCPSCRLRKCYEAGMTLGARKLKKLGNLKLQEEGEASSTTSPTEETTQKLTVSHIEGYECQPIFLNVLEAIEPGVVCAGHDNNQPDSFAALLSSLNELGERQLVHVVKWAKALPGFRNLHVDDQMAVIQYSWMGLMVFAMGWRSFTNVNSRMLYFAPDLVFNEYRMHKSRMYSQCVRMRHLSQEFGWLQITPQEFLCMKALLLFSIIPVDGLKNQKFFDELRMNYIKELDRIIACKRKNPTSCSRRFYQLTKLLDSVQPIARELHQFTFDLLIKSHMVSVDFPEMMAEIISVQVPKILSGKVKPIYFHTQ

castrated weanling rats = details: rat, in vivo
[7] = test system: castrated Sprague-Dawley male rats; experiment: Hershberger assay, ventral prostate weights (7α-methyl testosterone); assay type: in vivo, rat

T1 sequence (P03372 whole entry): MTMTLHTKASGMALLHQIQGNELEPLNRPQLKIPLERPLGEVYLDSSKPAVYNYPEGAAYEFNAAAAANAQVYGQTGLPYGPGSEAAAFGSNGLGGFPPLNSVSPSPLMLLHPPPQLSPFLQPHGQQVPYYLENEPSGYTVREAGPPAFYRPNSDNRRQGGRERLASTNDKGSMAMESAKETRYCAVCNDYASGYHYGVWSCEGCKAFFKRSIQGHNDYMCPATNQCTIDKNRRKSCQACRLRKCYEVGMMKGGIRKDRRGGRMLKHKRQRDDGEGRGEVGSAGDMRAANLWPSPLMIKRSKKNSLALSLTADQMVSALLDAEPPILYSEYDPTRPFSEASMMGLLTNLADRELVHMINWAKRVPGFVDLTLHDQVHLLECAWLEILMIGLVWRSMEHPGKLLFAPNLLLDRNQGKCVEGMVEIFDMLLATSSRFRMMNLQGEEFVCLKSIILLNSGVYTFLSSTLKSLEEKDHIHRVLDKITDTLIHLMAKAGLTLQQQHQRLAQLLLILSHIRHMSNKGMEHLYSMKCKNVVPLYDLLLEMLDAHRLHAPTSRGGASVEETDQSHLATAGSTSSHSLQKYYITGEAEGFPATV

SMILES: C[C@@H]1CC2CC(=O)CC[C@]2(C)C2CC[C@@]3(C)C(CC[C@@H]3O)C21 (stereo partly drawn) [CDB-4922, 7α-methyldihydro testosterone]
- pIC50 [1]: 4.58
- IC50 (nM) AR [2]: 57.1 nM
- IC50 ([3]; IC50 (nM) PR binding): 1890 nM
- % remaining at 15 min [4]: 66.8%
- % remaining at 30 min [4]: 38.0%
- % remaining at 60 min [4]: 10.1%

SMILES: C[C@@H]1CC2=CC(=O)CC[C@@H]2[C@H]2CC[C@]3(C)[C@@H](O)CC[C@H]3[C@@H]21 [CDB-902, 7-α-methylnortestosterone, reference compound]
- Parent molecule % remaining after 24 hours at 37° C. [5]: 100≤ %

SMILES: CC1CC2(C)C(O)CCC2C2CCC3=CC(=O)CCC3=C12 (stereo not drawn) [CDB-4890, 11β, 4,9 diene-MNT]
- IC50 [1]: 6680 nM
- IC50 (nM) AR [2]: 15.5 nM
- IC50 ([3]; read-out: IC50 (nM) PR binding): 43.5 nM

SMILES: CC1CC2(C)C(O)CCC2C2CCc3cc(O)ccc3C12 (stereo not drawn) [CDB 4917, 11β-methyl estradiol]
- IC50 [1]: 12 nM
- IC50 (nM) AR [2]: 12.8 nM
- IC50 ([3]; read-out: IC50 (nM) PR binding): 120 nM

SMILES: CC1Cc2cc(O)ccc2C2CCC3(C)C(O)CCC3C12 (stereo not drawn) [CDB 4915, 7α-methyl estradiol]
- IC50 [1]: 10.3 nM
- IC50 (nM) AR [2]: 20.1 nM
- EC50 [6]: 39 nM
- IC50 ([3]; read-out: IC50 (nM) PR binding): 502 nM

SMILES: C[C@@H]1CC2=CC(=O)CCC2C2C1C1CC[C@H](OC(=O)CCCCCCCCCCC(=O)O[C@H]3CCC4C5C(C6CCC(=O)C=C6C[C@H]5C)[C@@H](C)C[C@@]43C)[C@@]1(C)C[C@@H]2C (stereo partly drawn) [CDB-4867]
- Parent molecule % remaining after 24 hours at 37° C. ([5]; male): 100≤ %
- AUC (Levator ani muscle) (castrated weanling rats): 5059 mg*week
- AUC (Ventral Prostate) (castrated weanling rats): 529.5 mg*week
- duration of levator ani muscle weight increase (anabolic effects) (castrated weanling rats): sustained until Day 99 (Week 14)
- duration of ventral prostate weight increase (androgenic effects) (castrated weanling rats): sustained until Day 99 (Week 14)
- ventral prostate gland weights relative to vehicle (castrated weanling rats): increased

SMILES: CC1CC2(C)C(O)CCC2C2C(C)Cc3cc(O)ccc3C12 (stereo not drawn) [CDB 4916, 7α, 11β-dimethyl estradiol]
- IC50 [1]: 13.8 nM
- IC50 (nM) AR [2]: 17.8 nM
- EC50 [6]: 3.68 nM
- IC50 ([3]; read-out: IC50 (nM) PR binding): 165 nM

SMILES: C[C@@H]1CC2=CC(=O)CC[C@]2(C)C2CC[C@@]3(C)C(CC[C@@H]3O)C21 (stereo partly drawn) [CDB-4910, 7α-methyl testosterone]
- pIC50 [1]: 5.11
- Ventral Prostate (weight in gram) ([7]; Conc. in mmole 0.7): 0.076 gram
- Ventral Prostate (weight in gram) ([7]; Conc. in mmole 2.8): 0.13 gram
- Ventral Prostate (weight in gram) ([7]; Conc. in mmole 11.2): 0.14 gram
- IC50 ([3]; IC50 (nM) PR binding): 395 nM
- % remaining at 15 min [4]: 57.6%
- % remaining at 30 min [4]: 20.2%
- % remaining at 60 min [4]: 0.1%

SMILES: C[C@]12CC[C@H]3[C@@H](CCC4=CC(=O)CC[C@@]43C)[C@@H]1CC[C@@H]2O [Testosterone, reference compound]
- Ventral Prostate (weight in gram) ([7]; Conc. in mmole 6.9): 0.12 gram
- % remaining at 15 min [4]: 31.4%
- % remaining at 30 min [4]: 0.1%
- % remaining at 60 min [4]: 0.1%
